Test results reported in ChEMBL document CHEMBL4406914, “Impact of Minor Structural Modifications on Properties of a Series of mTOR Inhibitors” (ACS Med Chem Lett, 2019).
In brackets after ≈: the same amount, converted by molar mass.

Tests used:
[1] = target: Phosphatidylinositol 4,5-bisphosphate 3-kinase catalytic subunit alpha isoform (Homo sapiens, UniProt P42336)
Description: Inhibition of PI3Kalpha (unknown origin) using PIP2 as substrate measured after 30 mins by TR-FRET assay

mTORC2 = mTORC2 (Homo sapiens, UniProt P42345); experiment: Inhibition of mTORC2 in human A431 cells assessed as AKT phosphorylation at S473 residue incubated for 3 hrs by HTRF assay; format: cell-based
[2] = Lipophilicity, ChromlogD of compound at 0.5 mM at pH 6.5 by UPLC-UV analysis; conditions: buffer, pH 6.5, 500 µM
[3] = Metabolic stability in human liver microsomes assessed as parent compound remaining at 1 uM measured at 15 mins in presence of phase 1 metabolism cofactors by LC-MS/MS analysis; format: ADME, Microsome; conditions: read-out: Stability
[4] = Hepatic intrinsic clearance in human Hepatocytes assessed per at 1 uM measured upto 90 mins by LC-MS/MS analysis; format: ADME, cell-based, Hepatocyte; conditions: 1.5 h
mTORC1 = mTORC1 (Homo sapiens, UniProt P42345); experiment: Inhibition of mTORC1 in human A431 cells assessed as S6RP phosphorylation incubated for 3 hrs by HTRF assay; format: cell-based
[5] = target: Serine/threonine-protein kinase mTOR (Homo sapiens, UniProt P42345); experiment: Inhibition of human recombinant GST-tagged mTOR catalytic domain (1360 to 2549 residues) expressed in baculovirus expression system using GFP-4E-BP1 peptide as substrate incubated for 1 hr by LanthaScreen assay
[6] = Kinetic aqueous solubility of compound in phosphate buffer at pH 7.4 at 100 uM at 20 degree C shaken for 24 hrs by HPLC analysis; format: physicochemical; conditions: read-out: Kinetic_solubility

Phosphatidylinositol 4,5-bisphosphate 3-kinase catalytic subunit alpha isoform, sequence (P42336 whole entry, canonical isoform): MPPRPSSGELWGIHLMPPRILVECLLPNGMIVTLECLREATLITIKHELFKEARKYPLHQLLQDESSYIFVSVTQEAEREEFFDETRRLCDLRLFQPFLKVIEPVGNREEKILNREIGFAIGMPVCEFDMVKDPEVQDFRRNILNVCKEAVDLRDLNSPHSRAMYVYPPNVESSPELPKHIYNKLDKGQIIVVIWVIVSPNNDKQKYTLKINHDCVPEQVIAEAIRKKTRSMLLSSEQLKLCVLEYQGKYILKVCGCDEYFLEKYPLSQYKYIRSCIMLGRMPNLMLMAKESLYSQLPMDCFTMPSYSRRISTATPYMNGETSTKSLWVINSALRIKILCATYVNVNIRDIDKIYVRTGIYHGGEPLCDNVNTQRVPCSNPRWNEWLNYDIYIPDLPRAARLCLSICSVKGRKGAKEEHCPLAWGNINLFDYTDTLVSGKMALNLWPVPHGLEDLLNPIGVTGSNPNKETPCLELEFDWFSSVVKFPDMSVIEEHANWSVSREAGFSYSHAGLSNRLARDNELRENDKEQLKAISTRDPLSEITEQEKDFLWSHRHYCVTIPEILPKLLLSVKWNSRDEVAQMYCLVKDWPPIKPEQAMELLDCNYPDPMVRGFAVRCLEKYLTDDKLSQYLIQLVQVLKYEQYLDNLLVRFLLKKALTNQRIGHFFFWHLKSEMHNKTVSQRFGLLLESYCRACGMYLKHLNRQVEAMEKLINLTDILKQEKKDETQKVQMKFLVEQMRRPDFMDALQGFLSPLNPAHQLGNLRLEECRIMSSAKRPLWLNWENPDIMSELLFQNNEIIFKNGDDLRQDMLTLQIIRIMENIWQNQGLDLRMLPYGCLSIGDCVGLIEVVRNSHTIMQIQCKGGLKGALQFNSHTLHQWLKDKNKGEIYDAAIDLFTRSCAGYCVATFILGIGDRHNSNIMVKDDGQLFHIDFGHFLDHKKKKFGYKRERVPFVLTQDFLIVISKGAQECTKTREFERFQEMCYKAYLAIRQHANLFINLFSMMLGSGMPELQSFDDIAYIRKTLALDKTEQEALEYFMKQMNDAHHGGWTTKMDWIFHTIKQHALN

Ki [1] [nM]	IC50 (mTORC2) [nM]	ChromlogD6.5 [2]	remaining at 0.25 h, 1 µM [3] [%]	CLH [4] [µL/min]	IC50 (mTORC1) [nM]	Ki [5] [nM]	solubility kinetic at 24 h, 100 µM [6] [µM]	Compound
1000	60	1.8	94	55	35	21	4 (≈ 1.55 µg/mL)	CC(C)n1nc(-c2ccc3oc(N)nc3c2)c2c(Br)nc(N)nc21
920	20	1.7	92	11	8		2 (≈ 0.688 µg/mL)	CC(C)n1nc(-c2ccc3oc(N)nc3c2)c2c(Cl)nc(N)nc21
250	680	1.6	> 95		420	370	< 1	COc1nc(N)nc2c1c(-c1ccc3oc(N)nc3c1)nn2C(C)C
4600	20	2.3			7	11	< 1	CCCCn1nc(-c2ccc3oc(N)nc3c2)c2c(Cl)nc(N)nc21
2600	80	1.8	83	57	40	13	< 1	CC(C)n1nc(-c2ccc3oc(N)nc3c2)c2c(F)nc(N)nc21
85	140	1.2	93	< 5	60	50	62 (≈ 20.9 µg/mL)	CCc1nc(N)nc2c1c(-c1ccc3oc(N)nc3c1)nn2C(C)C
		0.4	> 95	< 5			82 (≈ 25.4 µg/mL)	CC(C)n1nc(-c2ccc3oc(N)nc3c2)c2c(N)ncnc21 [SAPANISERTIB]
990	200	0.8	> 95	< 5	40	62	74 (≈ 23.9 µg/mL)	Cc1nc(N)nc2c1c(-c1ccc3oc(N)nc3c1)nn2C(C)C
780	15	1.1	94	150	7	6	1.6 (≈ 0.495 µg/mL)	CC(C)n1nc(-c2ccc3oc(N)nc3c2)c2cnc(N)nc21
3200	200	0.4	> 95	< 5	40	20	9.2 (≈ 2.99 µg/mL)	CC(C)n1nc(-c2ccc3oc(N)nc3c2)c2c(=O)[nH]c(N)nc21
150	11	-0.1	> 95	< 5	4	4	88 (≈ 28.5 µg/mL)	CC(C)n1nc(-c2ccc3oc(N)nc3c2)c2c(N)nc(N)nc21
2200	90	1.4			30	33	5.2 (≈ 1.75 µg/mL)	CCCCn1nc(-c2ccc3oc(N)nc3c2)c2c(C)nc(N)nc21

Compound	Ki [1] [nM]	IC50 (mTORC2) [nM]	ChromlogD6.5 [2]	remaining at 0.25 h, 1 µM [3] [%]	CLH [4] [µL/min]	IC50 (mTORC1) [nM]	Ki [5] [nM]	solubility kinetic at 24 h, 100 µM [6] [µM]
CC(C)n1nc(-c2ccc3oc(N)nc3c2)c2c(CO)nc(N)nc21	> 10000		0.2	> 95	< 5		4000	82 (≈ 27.8 µg/mL)
CC(C)n1nc(-c2ccc3oc(N)nc3c2)c2c(C#N)nc(N)nc21	> 10000		1.8	> 95	< 5		2200	< 1
Cc1nc2c(c(-c3ccc4oc(N)nc4c3)nn2C(C)C)c(=O)[nH]1	> 10000	90	1.2	> 95	< 5	45	40	3 (≈ 0.973 µg/mL)
CC(C)n1nc(-c2ccc3oc(N)nc3c2)c2c(=O)[nH]c(N(C)C)nc21	> 10000		2.1	90	< 5		1700	2 (≈ 0.707 µg/mL)
CNc1nc2c(c(-c3ccc4oc(N)nc4c3)nn2C(C)C)c(=O)[nH]1	> 10000	360	1.5	> 95	< 5	240	190	< 1
CC(C)n1nc(-c2ccc3oc(N)nc3c2)c2c(C(F)(F)F)nc(N)nc21	> 10000		2.4	> 95	< 5		2300	< 1
